Patent US9781930B2, “3′-substituted-abscisic acid derivatives” (Valent BioSciences Corporation, priority 2014, dated 2017)

What was measured:
Format in all cases: in vivo
[1] = test system: Arabidopsis thaliana seed; experiment: Seed germination assay for testing Examples 29-46; design: key: ++++: The 3′-substituted-derivatives were scored by potency relative to ABA.; (S)-ABA potency = +++.; ++: The 3′-substituted-derivatives were scored by potency relative to ABA.; +: The 3′-substituted-derivatives were scored by potency relative to ABA.; −− = no effect; conditions: 0.16-40 μM in 6-well plates, 4 days after vernalization, compared with (S)-ABA
Procedure: (§1) Seed Germination Assay for Testing Examples 29-46 To determine the germination inhibition potency of the (±)-ABA derivatives, germination assays were performed with the model plant Arabidopsis thaliana. Arabidopsis seed was sterilized by soaking in 70% ethanol solution for 5 minutes, followed by 5% sodium hypochlorite solution for 10 minutes. The seeds were then washed three times with sterile water. The test compounds were tested in germination assay at five concentrations (0.16, 0.64, 2.5, 10, and 40 μM) with (S)-ABA (0.16, 0.64 and 2.5 μM) as a control in 6-well plates. DMSO stock solutions of (S)-ABA and the derivatives at 1,000 fold of the test concentrations were prepared. The stock solutions (5 μL) of (S)-ABA and the derivatives were added to the wells in the assay plate with 0.8% agar solutions of ½ Murashige and Skoog media. Sixteen sterile seeds were placed on the solid agar medium at an appropriate spacing. The assay plates were sealed with surgical tape and wrapped in aluminum foil, and the seeds were vernalized at 4° C. for 2 days. The assay plates were incubated in a growth chamber at 22.5° C. under daily light cycles of 16 hours (30 μmol/m^2·sec) for 4 days after the vernalization. The germination inhibition potency of the derivatives was scored and compared with that of (S)-ABA. The results are summarized in Table 2 “Table 2: Arabidopsis seed germination inhibition activity of (±)-ABA derivatives.”

[2] = test system: Arabidopsis thaliana seed; experiment: Seed germination assay for testing Examples 29-46
Procedure: as §1

[3] = test system: Arabidopsis thaliana seed; experiment: Seed germination inhibition assay for testing Examples 1-28 and 47-50; design: key to Arabidopsis seed germination inhibition potency: + + + +: The other derivatives were scored by potency relative to S-ABA.; (S)-ABA potency = + + +.; + +: The other derivatives were scored by potency relative to S-ABA.; ++: The other derivatives were scored by potency relative to S-ABA.; +: The other derivatives were scored by potency relative to S-ABA.; −− = no effect; conditions: 0.01-10.0 ppm in 96-well plates, scored on day 7, relative to (S)-ABA
Procedure: Seed Germination Inhibition Assay for Testing Examples 1-28 and 47-50 To determine the germination inhibition potency of the (S)-ABA derivatives, germination assays were performed with the model plant Arabidopsis thaliana. Arabidopsis seed was sterilized by shaking for five minutes in 200-proof ethanol, and followed by shaking for five minutes in a 10% bleach solution. The seeds were then washed five times in sterile, distilled, de-ionized water and suspended in 0.1% phytoagar. The tubes containing the seeds were wrapped in aluminum foil and stratified at 4° C. for two days. All compounds were tested at eight concentrations of 0 (DMSO control), 0.01, 0.03, 0.1, 0.3, 1.0, 3.0, and 10.0 ppm in 96-well plates. Each plate contained eight replicates of each concentration of the test compound and eight replicates of (S)-ABA at 0.1 ppm as the positive control. As an additional set of controls, each run of the assay also contained one plate dosed with (S)-ABA covering a range of concentrations up to 10 ppm. For each compound, 10× stock solutions corresponding to each of the tested concentrations were prepared in distilled and de-ionized water containing 5% DMSO. The stock test solution (10 μL) was added to each well according to the scheme described above, and 90 μL of ½× Murashige and Skoog media containing 1.2% Bactoagar was then added to each well (final DMSO concentration was 0.5%). When the media solidified, ten to fifteen sterile stratified Arabidopsis seeds were distributed into each well using a repeat pipettor. The plates were sealed with surgical tape and placed in a growth chamber running diurnal cycles of 12 hours of light at 24° C. and 12 hours of darkness at 19° C. The plates were scanned on days 3 through 7, and scored on day 7. The 3′-substituted-(S)-ABA derivatives were scored on ability to inhibit germination relative to the potency of (S)-ABA. The results are summarized below in “Table 1: Arabidopsis seed germination inhibition activity of (S)-ABA derivatives.”

| Structure (SMILES) | Arabidopsis seed germination inhibition potency [1] | germination inhibition activity compared to (S)-ABA (in words) [2] | Arabidopsis seed germination inhibition potency [3] |
| --- | --- | --- | --- |
| CC1=C(C2CC2)C(=O)CC(C)(C)C1(O)/C=C/C(C)=C\C(=O)O (racemic) [Example 29, (2Z,4E)-5-(3-cyclopropyl-1-hydroxy-2,6,6-trimethyl-4-oxocyclohex-2-en-1-yl)-3-methylpenta-2,4-dienoic acid] | +++ | the same level of potency as (S)-ABA |  |
| CCCC1=C(C)C(O)(/C=C/C(C)=C\C(=O)O)C(C)(C)CC1=O (racemic) [Example 30, (2Z,4E)-5-(1-hydroxy-2,6,6-trimethyl-4-oxo-3-propylcyclohex-2-en-1-yl)-3-methylpenta-2,4-dienoic acid] | +++ | the same level of potency as (S)-ABA |  |
| CC1=C(C(C)C)C(=O)CC(C)(C)C1(O)/C=C/C(C)=C\C(=O)O (racemic) [Example 31, (2Z,4E)-5-(1-hydroxy-3-isopropyl-2,6,6-trimethyl-4-oxocyclohex-2-en-1-yl)-3-methylpenta-2,4-dienoic acid] | + |  |  |
| CCC1=C(C)C(O)(/C=C/C(C)=C\C(=O)O)C(C)(C)CC1=O (racemic) [Example 32, (2Z,4E)-5-(3-ethyl-1-hydroxy-2,6,6-trimethyl-4-oxocyclohex-2-en-1-yl)-3-methylpenta-2,4-dienoic acid] | +++ | the same level of potency as (S)-ABA |  |
| CCCCC1=C(C)C(O)(/C=C/C(C)=C\C(=O)O)C(C)(C)CC1=O (racemic) [Example 33, (2Z,4E)-5-(3-butyl-1-hydroxy-2,6,6-trimethyl-4-oxocyclohex-2-en-1-yl)-3-methylpenta-2,4-dienoic acid] | + |  |  |
| CC1=C(C(F)F)C(=O)CC(C)(C)C1(O)/C=C/C(C)=C\C(=O)O (racemic) [Example 38, (2Z,4E)-5-(3-(difluoromethyl)-1-hydroxy-2,6,6-trimethyl-4-oxocyclohex-2-en-1-yl)-3-methylpenta-2,4-dienoic acid] | +++ | the same level of potency as (S)-ABA |  |
| CC1=C(C(C)(F)F)C(=O)CC(C)(C)C1(O)/C=C/C(C)=C\C(=O)O (racemic) [Example 39, (2Z,4E)-5-(3-(1,1-difluoroethyl)-1-hydroxy-2,6,6-trimethyl-4-oxocyclohex-2-en-1-yl)-3-methylpenta-2,4-dienoic acid] | ++++ | more active than (S)-ABA |  |
| CC1=C(C(C)F)C(=O)CC(C)(C)C1(O)/C=C/C(C)=C\C(=O)O (racemic) [Example 40, (2Z,4E)-5-(3-(1-fluoroethyl)-1-hydroxy-2,6,6-trimethyl-4-oxocyclohex-2-en-1-yl)-3-methylpenta-2,4-dienoic acid] | ++++ | more active than (S)-ABA |  |
| CC1=C(C2CCC2)C(=O)CC(C)(C)C1(O)/C=C/C(C)=C\C(=O)O (racemic) [Example 41, (2Z,4E)-5-(3-cyclobutyl-1-hydroxy-2,6,6-trimethyl-4-oxocyclohex-2-en-1-yl)-3-methylpenta-2,4-dienoic acid] | ++ |  |  |
| CC1=C(CC(F)(F)F)C(=O)CC(C)(C)C1(O)/C=C/C(C)=C\C(=O)O (racemic) [Example 44, (2Z,4E)-5-(1-hydroxy-2,6,6-trimethyl-4-oxo-3-(2,2,2-trifluoroethyl)cyclohex-2-en-1-yl)-3-methylpenta-2,4-dienoic acid] | ++ |  |  |
| CC1=CC(=O)CC(C)(C)[C@@]1(O)/C=C/C(C)=C/C(=O)O [(S)-ABA, (S)-abscisic acid, reference compound] | +++ |  | + + + |
| CC1=C(Cc2cc(F)cc(F)c2)C(=O)CC(C)(C)[C@@]1(O)/C=C/C(C)=C\C(=O)O [Example 23, (2Z,4E)-5-((S)-3-(3,5-difluorobenzyl)-1-hydroxy-2,6,6-trimethyl-4-oxocyclohex-2-en-1-yl)-3-methylpenta-2,4-dienoic acid] |  |  | −− |
| CC1=C(Cc2ccccc2Cl)C(=O)CC(C)(C)[C@@]1(O)/C=C/C(C)=C\C(=O)O [Example 24, (2Z,4E)-5-((S)-3-(2-chlorobenzyl)-1-hydroxy-2,6,6-trimethyl-4-oxocyclohex-2-en-1-yl)-3-methylpenta-2,4-dienoic acid] |  |  | −− |
| CC1=C(Cc2ccc(Cl)cc2)C(=O)CC(C)(C)[C@@]1(O)/C=C/C(C)=C\C(=O)O [Example 25, (2Z,4E)-5-((S)-3-(4-chlorobenzyl)-1-hydroxy-2,6,6-trimethyl-4-oxocyclohex-2-en-1-yl)-3-methylpenta-2,4-dienoic acid] |  |  | −− |
| COc1cccc(CC2=C(C)[C@](O)(/C=C/C(C)=C\C(=O)O)C(C)(C)CC2=O)c1 [Example 26, (2Z,4E)-5-((S)-3-(3-methoxybenzyl)-1-hydroxy-2,6,6-trimethyl-4-oxocyclohex-2-en-1-yl)-3-methylpenta-2,4-dienoic acid] |  |  | −− |
| COc1cc([N+](=O)[O-])ccc1CC1=C(C)[C@](O)(/C=C/C(C)=C\C(=O)O)C(C)(C)CC1=O [Example 27, (2Z,4E)-5-((S)-1-hydroxy-3-(2-methoxy-4-nitrobenzyl)-2,6,6-trimethyl-4-oxocyclohex-2-en-1-yl)-3-methylpenta-2,4-dienoic acid] |  |  | −− |
| CC1=C(Cc2nc3ccccc3s2)C(=O)CC(C)(C)[C@@]1(O)/C=C/C(C)=C\C(=O)O [Example 28, (2Z,4E)-5-((S)-3-(benzo[d]thiazol-2-ylmethyl)-1-hydroxy-2,6,6-trimethyl-4-oxocyclohex-2-en-1-yl)-3-methylpenta-2,4-dienoic acid] |  |  | −− |
| CC#CCC1=C(C)[C@](O)(/C=C/C(C)=C\C(=O)O)C(C)(C)CC1=O [Example 47, (2Z,4E)-5-((S)-3-(but-2-yn-1-yl)-1-hydroxy-2,6,6-trimethyl-4-oxocyclohex-2-en-1-yl)-3-methylpenta-2,4-dienoic acid] |  |  | ++ |
| CCC#CCC1=C(C)[C@](O)(/C=C/C(C)=C\C(=O)O)C(C)(C)CC1=O [Example 48, (2Z,4E)-5-((S)-1-hydroxy-2,6,6-trimethyl-4-oxo-3-(pent-2-yn-1-yl)cyclohex-2-en-1-yl)-3-methylpenta-2,4-dienoic acid] |  |  | + |
| CC1=C(C/C=C/C(=O)O)C(=O)CC(C)(C)[C@@]1(O)/C=C/C(C)=C\C(=O)O [Example 49, (2Z,4E)-5-((S)-3-((E)-3-carboxyallyl)-1-hydroxy-2,6,6-trimethyl-4-oxocyclohex-2-en-1-yl)-3-methylpenta-2,4-dienoic acid] |  |  | −− |
| CC1=C(C/C=C/c2ccccc2)C(=O)CC(C)(C)[C@@]1(O)/C=C/C(C)=C\C(=O)O [Example 50, (2Z,4E)-5-((S)-3-cinnamyl-1-hydroxy-2,6,6-trimethyl-4-oxocyclohex-2-en-1-yl)-3-methylpenta-2,4-dienoic acid] |  |  | + |
